The test has as its system AKR/Lw mice, AKR lymphoma ip, median survival T/C. The test is described as follows: NCI In Vivo Anticancer Drug Screen. Data for tumor model Lymphoma AKR (Transplanted) (intraperitoneal) in AKR/Lw mice. The conditions noted are these: endpoint: median survival time, higher = longer survival. The method, then: The antitumor activity of compounds was measured in mice bearing transplantable tumors. Survival or tumor size were measured and the results are expressed as the measurement made in the treated group (T) divided by the measurement made in the vehicle treated control group (C). The tumor model used in this assay is Lymphoma AKR (Transplanted) (intraperitoneal) in AKR/Lw mice

Where [1] appears, read: dose: 100.0 mg/kg/injection, schedule: Q01DX001 (ip), vehicle: Klucel (hydroxypropylcellulose) (HPC).
The mark [2] stands for this setting: dose: 200.0 mg/kg/injection, schedule: Q01DX001 (ip), vehicle: saline.
Where [3] appears, read: dose: 400.0 mg/kg/injection, schedule: Q01DX001 (ip), vehicle: Klucel (hydroxypropylcellulose) (HPC).
The mark [4] stands for this setting: dose: 400.0 mg/kg/injection, schedule: Q01DX001 (ip), vehicle: saline.
The mark [5] stands for this setting: dose: 200.0 mg/kg/injection, schedule: Q01DX001 (ip), vehicle: Klucel (hydroxypropylcellulose) (HPC).

“And” between values parts separate entries of the source, which are not always exact repeats. Equal values may be shown once. Inconclusive results and toxic doses are left out.

As for `S=c1nc[nH]c2nc[nH]c12`, the T/C reads like this: (dose: 6.25 mg/kg/injection, schedule: Q01DX015 (ip), vehicle: Klucel (hydroxypropylcellulose) (HPC)) 110 % of control; (dose: 10.0 mg/kg/injection, schedule: Q01DX009 (ip), vehicle: saline) 94 % of control; (dose: 12.5 mg/kg/injection, schedule: Q01DX015 (ip), vehicle: Klucel (hydroxypropylcellulose) (HPC)) 100 % of control; (dose: 20.0 mg/kg/injection, schedule: Q01DX009 (ip), vehicle: saline) 94 % of control and 102 % of control and 105 % of control; (dose: 25.0 mg/kg/injection, schedule: Q01DX015 (ip), vehicle: Klucel (hydroxypropylcellulose) (HPC)) 100 % of control; (dose: 30.0 mg/kg/injection, schedule: Q01DX001 (ip), vehicle: saline) 104 % of control and 109 % of control and 112 % of control. For the same compound, the T/C is, setting by setting: (dose: 30.0 mg/kg/injection, schedule: Q01DX009 (ip), vehicle: saline) 100 % of control; (dose: 30.0 mg/kg/injection, schedule: Q04DX003 (ip), vehicle: saline) 102 % of control; (dose: 37.5 mg/kg/injection, schedule: Q01DX009 (ip), vehicle: saline) 104 % of control; (dose: 40.0 mg/kg/injection, schedule: Q01DX009 (ip), vehicle: saline) 94 % of control and 97 % of control and 113 % of control; (dose: 50.0 mg/kg/injection, schedule: Q01DX009 (ip), vehicle: Klucel (hydroxypropylcellulose) (HPC)) 100 % of control; (dose: 50.0 mg/kg/injection, schedule: Q01DX009 (ip), vehicle: saline) 120 % of control. Further, the T/C is 92 % of control and 93 % of control (dose: 50.0 mg/kg/injection, schedule: Q01DX015 (ip), vehicle: Klucel (hydroxypropylcellulose) (HPC)); 100 % of control (dose: 50.0 mg/kg/injection, schedule: Q04DX003 (ip), vehicle: saline); 97 % of control and 111 % of control and 113 % of control (dose: 60.0 mg/kg/injection, schedule: Q01DX001 (ip), vehicle: saline); 96 % of control (dose: 60.0 mg/kg/injection, schedule: Q01DX009 (ip), vehicle: saline); 119 % of control (dose: 60.0 mg/kg/injection, schedule: Q04DX003 (ip), vehicle: saline); 113 % of control (dose: 75.0 mg/kg/injection, schedule: Q01DX001 (ip), vehicle: saline). The T/C is 109 % of control (dose: 75.0 mg/kg/injection, schedule: Q01DX009 (ip), vehicle: saline); 94 % of control and 123 % of control (dose: 80.0 mg/kg/injection, schedule: Q01DX009 (ip), vehicle: saline); 96 % of control under setting [1]; 90 % of control (dose: 100.0 mg/kg/injection, schedule: Q01DX009 (ip), vehicle: Klucel (hydroxypropylcellulose) (HPC)); 93 % of control (dose: 100.0 mg/kg/injection, schedule: Q01DX009 (ip), vehicle: saline); 97 % of control and 100 % of control and 108 % of control (dose: 100.0 mg/kg/injection, schedule: Q04DX003 (ip), vehicle: Klucel (hydroxypropylcellulose) (HPC)). The T/C is 102 % of control and 123 % of control (dose: 100.0 mg/kg/injection, schedule: Q04DX003 (ip), vehicle: saline); 93 % of control and 104 % of control and 222 % of control (dose: 120.0 mg/kg/injection, schedule: Q01DX001 (ip), vehicle: saline); 100 % of control (dose: 120.0 mg/kg/injection, schedule: Q04DX003 (ip), vehicle: saline); 102 % of control and 112 % of control (dose: 150.0 mg/kg/injection, schedule: Q01DX001 (ip), vehicle: Klucel (hydroxypropylcellulose) (HPC)); 100 % of control (dose: 150.0 mg/kg/injection, schedule: Q01DX009 (ip), vehicle: saline); 100 % of control (dose: 175.0 mg/kg/injection, schedule: Q01DX001 (ip), vehicle: Klucel (hydroxypropylcellulose) (HPC)). In addition, the T/C under setting [2] is 104 % of control; the T/C (dose: 200.0 mg/kg/injection, schedule: Q01DX009 (ip), vehicle: saline) was 110 % of control; the T/C (dose: 200.0 mg/kg/injection, schedule: Q04DX003 (ip), vehicle: Klucel (hydroxypropylcellulose) (HPC)) is 90 % of control; the T/C (dose: 200.0 mg/kg/injection, schedule: Q04DX003 (ip), vehicle: saline) was 90 % of control; the T/C (dose: 300.0 mg/kg/injection, schedule: Q01DX001 (ip), vehicle: Klucel (hydroxypropylcellulose) (HPC)) was 106 % of control; the T/C (dose: 300.0 mg/kg/injection, schedule: Q01DX001 (ip), vehicle: saline) is 119 % of control. For the same compound, the T/C under setting [3] was 113 % of control; the T/C under setting [4] was 102 % of control; the T/C (dose: 400.0 mg/kg/injection, schedule: Q04DX003 (ip), vehicle: Klucel (hydroxypropylcellulose) (HPC)) is 121 % of control; the T/C (dose: 600.0 mg/kg/injection, schedule: Q01DX001 (ip), vehicle: Klucel (hydroxypropylcellulose) (HPC)) was 115 % of control.

For `O=C(NC(CSC(c1ccccc1)c1ccccc1)C(=O)O)OCc1ccccc1` (stereo unspecified), the T/C is, setting by setting: under setting [1], 95 % of control; under setting [5], 93 % of control; under setting [3], 95 % of control.

Turning to `CN(C)CCCNC(=O)Nc1ccccc1`, the T/C by setting is: under setting [1], 103 % of control; under setting [5], 93 % of control.

Consider `COc1cccc2c1CCC1=C2CC2C(=O)C1CCC2(C)O` (stereo unspecified), for which the T/C (dose: 100.0 mg/kg/injection, schedule: Q01DX001 (ip), vehicle: saline) was 88 % of control; the T/C under setting [2] was 97 % of control; the T/C under setting [4] is 100 % of control.

On to `O=C(O)CCC(=O)Nc1cccc(Oc2ccc([N+](=O)[O-])cc2[N+](=O)[O-])c1`, for which the T/C under setting [1] is 100 % of control, the T/C under setting [5] was 87 % of control and the T/C under setting [3] is 90 % of control.
